Laboratory results taken from patent US20170166555A1, “FUNCTIONALISED AND SUBSTITUTED INDOLES AS ANTI-CANCER AGENTS” (Novogen Limited, priority 2013, published 2017).
Like-named read-outs stand apart in the source and are kept apart here.

Columns and labels:
Assay in all cases: Anti-proliferative assay, cell-titre luminescent reagent, 72 h (GVK-BIO)
Assay type in all cases: cell-based
[1] = test system: PC3 prostate cancer cells
How it was run: (§1)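 Seed at predetermined density, 24 h attach (37 °C, 5% CO2). Dose 4-point (30–0.03 μM, 10-fold) → IC50 by linear regression on semi-log plot; or 6-point (30–0.1 μM) → EC50 by sigmoidal variable-slope fit. Reagent 30 min, luminescence vs untreated control.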

[2] = test system: SK-N-SH neuroblastoma cells; conditions: Homo sapiens
How it was run: as §1

[3] = test system: MDA-MB-231 triple negative breast cancer cells; conditions: Homo sapiens
How it was run: as §1

[4] = test system: DU145 prostate cancer cells; conditions: Homo sapiens
How it was run: as §1

[5] = test system: CaCo2 colorectal cancer cells; conditions: Homo sapiens
How it was run: as §1

[6] = test system: A549 non-small cell lung carcinoma cells; conditions: Homo sapiens, read-out: IC50/μM Lung (NSLC) A549
How it was run: as §1

[7] = test system: SK-Mel-28 melanoma cells; conditions: Homo sapiens
How it was run: as §1

[8] = 30, 3, 0.3 and 0.03 μM, linear regression (Tables 2-4)
[9] = SK-N-SH, 30, 3, 0.3 and 0.03 μM, linear regression (Tables 2-4)
[10] = MDA-MB-231, 72 h, 30, 3, 0.3 and 0.03 μM, linear regression (Tables 2-4)
[11] = DU-145, 72 h, 30, 3, 0.3 and 0.03 μM, linear regression (Tables 2-4)
[12] = Caco-2, 72 h, 30, 3, 0.3 and 0.03 μM, linear regression (Tables 2-4)
[13] = A549, 72 h, 30, 3, 0.3 and 0.03 μM, linear regression (Tables 2-4)
[14] = SK-MEL-28, 72 h, 30, 3, 0.3 and 0.03 μM, linear regression (Tables 2-4)
[15] = 30, 10, 3, 1, 0.3 and 0.1 μM, nonlinear regression (Table 5)
[16] = SK-N-SH, 30, 10, 3, 1, 0.3 and 0.1 μM, nonlinear regression (Table 5)
[17] = MDA-MB-231, 72 h, 30, 10, 3, 1, 0.3 and 0.1 μM, nonlinear regression (Table 5)
[18] = DU-145, 72 h, 30, 10, 3, 1, 0.3 and 0.1 μM, nonlinear regression (Table 5)
[19] = Caco-2, 72 h, 30, 10, 3, 1, 0.3 and 0.1 μM, nonlinear regression (Table 5)
[20] = A549, 72 h, 30, 10, 3, 1, 0.3 and 0.1 μM, nonlinear regression (Table 5)
[21] = SK-MEL-28, 72 h, 30, 10, 3, 1, 0.3 and 0.1 μM, nonlinear regression (Table 5)

Structure (SMILES) | IC50 [1, 8] [µM] | IC50 [2, 9] [µM] | IC50 [3, 10] [µM] | IC50 [4, 11] [µM] | IC50 [5, 12] [µM] | IC50 [6, 13] [µM] | IC50 [7, 14] [µM] | IC50 [1, 15] [µM] | IC50 [2, 16] [µM] | IC50 [3, 17] [µM] | IC50 [4, 18] [µM] | IC50 [5, 19] [µM] | IC50 [6, 20] [µM] | IC50 [7, 21] [µM]
CN(C)CCCn1ccc2cc(Nc3ccc(C(=O)Nc4ccc5c(c4)OCO5)cc3)ccc21 [Compound 4101, N-(benzo[d][1,3]dioxol-5-yl)-4-((1-(3-(dimethylamino)propyl)-1H-indol-5-yl)amino)benzamide] | 7.8 | 3.4 | 3.9 | 5.2 | > 30 | 4 | 3.3 |  |  |  |  |  |  | 
CN(C)CCCn1ccc2cc(Nc3ccc(C(=O)Nc4cccc(F)c4)cc3)ccc21 [Compound 4102, 4-((1-(3-(dimethylamino)propyl)-1H-indol-5-yl)amino)-N-(3-fluorophenyl)benzamide] | 5.5 | 3.5 | 3.6 | 6 | > 30 | 4 | 3.5 |  |  |  |  |  |  | 
COc1cccc(NC(=O)c2ccc(Nc3ccc4c(ccn4CCCN(C)C)c3)cc2)c1 [Compound 4103, 4-((1-(3-(dimethylamino)propyl)-1H-indol-5-yl)amino)-N-(3-methoxyphenyl)benzamide] | 5.4 | 2.9 | 2.7 | 3.7 | 5 | 3 | 5.4 |  |  |  |  |  |  | 
Cc1c(C)n(CCCN(C)C)c2ccc(Nc3ccc(C(=O)Nc4ccc(F)cc4)cc3)cc12 [Compound 4104, 4-((1-(3-(dimethylamino)propyl)-2,3-dimethyl-1H-indol-5-yl)amino)-N-(4-fluorophenyl)benzamide] | 4.1 | 3.4 | 4.2 | 4.1 | 3.2 | 4 | 3.6 |  |  |  |  |  |  | 
COc1ccc(NC(=O)c2ccc(Nc3ccc4c(c3)c(C)c(C)n4CCCN(C)C)cc2)cc1 [Compound 4105, 4-((1-(3-(dimethylamino)propyl)-2,3-dimethyl-1H-indol-5-yl)amino)-N-(4-methoxyphenyl)benzamide] | 3.7 | 3.4 | 2.7 | 3.6 | 2.6 | 3.6 | 2.6 |  |  |  |  |  |  | 
Cc1c(C)n(CCCN(C)C)c2ccc(Nc3ccc(C(=O)Nc4ccc5c(c4)OCO5)cc3)cc12 [Compound 4106, N-(benzo[d][1,3]dioxol-5-yl)-4-((1-(3-(dimethylamino)propyl)-2,3-dimethyl-1H-indol-5-yl)amino)benzamide] | 3.6 | 1.8 | 1.9 | 3.1 | 2.8 | 2.4 | 2.6 |  |  |  |  |  |  | 
Cc1c(C)n(CCCN(C)C)c2ccc(Nc3ccc(C(=O)Nc4cccc(F)c4)cc3)cc12 [Compound 4107, 4-((1-(3-(dimethylamino)propyl)-2,3-dimethyl-1H-indol-5-yl)amino)-N-(3-fluorophenyl)benzamide] | 3.5 | 3.6 | 2.8 | 3.5 | 3.6 | 2.9 | 2.8 |  |  |  |  |  |  | 
COc1cccc(NC(=O)c2ccc(Nc3ccc4c(c3)c(C)c(C)n4CCCN(C)C)cc2)c1 [Compound 4108, 4-((1-(3-(dimethylamino)propyl)-2,3-dimethyl-1H-indol-5-yl)amino)-N-(3-methoxyphenyl)benzamide] | 3.6 | 2.9 | 2.2 | 3.5 | 2.1 | 3.4 | 2.9 |  |  |  |  |  |  | 
COc1cccc(CCN2CCN(Cc3ccc4c(c3)c(C)c(C)n4CCCN3CCN(C)CC3)CC2)c1 [Compound 4115, 5-((4-(3-methoxyphenethyl)piperazin-1-yl)methyl)-2,3-dimethyl-1-(3-(4-methylpiperazin-1-yl)propyl)-1H-indole] |  |  |  |  |  |  |  | 9.4 | 4.9 | 3.4 | 6.1 | 6.2 | 8.8 | 1.1
Cc1c(C)n(CCCN2CCN(C)CC2)c2ccc(CN3CCN(CCc4cccc(O)c4)CC3)cc12 [Compound 4116, 3-(2-(4-((2,3-dimethyl-1-(3-(4-methylpiperazin-1-yl)propyl)-1H-indol-5-yl)methyl)piperazin-1-yl)ethyl)phenol] |  |  |  |  |  |  |  | 13.2 | 4.6 | 4.1 | 7.6 | 6 | 10.1 | 3.2
Cc1c(C)n(CCCN2CCN(C)CC2)c2ccc(CN3CCN(CCc4ccccc4)CC3)cc12 [Compound 4117, 2,3-dimethyl-1-(3-(4-methylpiperazin-1-yl)propyl)-5-((4-phenethylpiperazin-1-yl)methyl)-1H-indole] |  |  |  |  |  |  |  | 10.2 | 4.6 | 3.5 | 5.6 | 8.2 | 8.6 | 2

Further lines, results first:

IC50 [1, 8] [µM] | IC50 [2, 9] [µM] | IC50 [3, 10] [µM] | IC50 [4, 11] [µM] | IC50 [5, 12] [µM] | IC50 [6, 13] [µM] | IC50 [7, 14] [µM] | IC50 [1, 15] [µM] | IC50 [2, 16] [µM] | IC50 [3, 17] [µM] | IC50 [4, 18] [µM] | IC50 [5, 19] [µM] | IC50 [6, 20] [µM] | IC50 [7, 21] [µM] | Structure (SMILES)
 |  |  |  |  |  |  | 9.5 | 3.7 | 3.6 | 5.3 | 9.1 | 6.5 | 1 | Cc1c(C)n(CCCN(C)C)c2ccc(CN3CCN(CCc4ccc(F)cc4)CC3)cc12 [Compound 4109, 3-(5-((4-(4-fluorophenethyl)piperazin-1-yl)methyl)-2,3-dimethyl-1H-indol-1-yl)-N,N-dimethylpropan-1-amine]
 |  |  |  |  |  |  | 17.7 | 4.2 | 6.9 | 22.7 | 12.9 | 33.2 | 4.4 | Cc1c(C)n(CCCN2CCN(C)CC2)c2ccc(CN3CCN(CCc4ccc(F)cc4)CC3)cc12 [Compound 4110, 5-((4-(4-fluorophenethyl)piperazin-1-yl)methyl)-2,3-dimethyl-1-(3-(4-methylpiperazin-1-yl)propyl)-1H-indole]
 |  |  |  |  |  |  | 7.5 | 3.4 | 3.9 | 11.3 | 7.9 | 5.5 | 2.4 | COc1ccc(CCN2CCN(Cc3ccc4c(c3)c(C)c(C)n4CCCN3CCN(C)CC3)CC2)cc1 [Compound 4111, 5-((4-(4-methoxyphenethyl)piperazin-1-yl)methyl)-2,3-dimethyl-1-(3-(4-methylpiperazin-1-yl)propyl)-1H-indole]
 |  |  |  |  |  |  | 8.4 | 7 | 11.8 | 8.3 | 17.5 | 5.9 | 13 | Cc1c(C)n(CCCN2CCN(C)CC2)c2ccc(CN3CCN(CCc4ccc(O)cc4)CC3)cc12 [Compound 4112, 4-(2-(4-((2,3-dimethyl-1-(3-(4-methylpiperazin-1-yl)propyl)-1H-indol-5-yl)methyl)piperazin-1-yl)ethyl)phenol]
> 30 | 31.9 | > 30 | > 30 | > 30 | > 30 | 18.1 |  |  |  |  |  |  |  | Cc1c(C)n(CCCN(C)C)c2ccc(C(=O)N3CCN(CCc4ccc(F)cc4)CC3)cc12 [Compound 4118, (1-(3-(dimethylamino)propyl)-2,3-dimethyl-1H-indol-5-yl)(4-(4-fluorophenethyl)piperazin-1-yl)methanone]
 |  |  |  |  |  |  | > 30 | > 30 | > 30 | > 30 | > 30 | > 30 | > 30 | Cc1c(C)n(CCCN(C)C)c2ccc(C(=O)N3CCN(CCc4ccc(O)cc4)CC3)cc12 [Compound 4119, (1-(3-(dimethylamino)propyl)-2,3-dimethyl-1H-indol-5-yl)(4-(4-hydroxyphenethyl)piperazin-1-yl)methanone]
